# Measurements published in patent US6737383B1, “Herbicidal oxadiazolidines” (priority 1999, dated 2004).
# How the values were obtained:
# wheat = assay: Test B pre/postemergence wheat; type: in vivo, Triticum aestivum
# Summary of the method: (§1)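 Herbicidal effect was estimated by eye on a ten-point control scale after plants spent twelve to sixteen days in a greenhouse following soil or foliar treatment. Foliar sprays targeted plants at one to four leaves; all doses were formulated in a non-phytotoxic solvent with surfactant.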
# velvetleaf = assay: Test B pre/postemergence velvetleaf; type: in vivo, Abutilon theophrasti
# Summary of the method: as §1
# rape = assay: Test B pre/postemergence rape; type: in vivo, Brassica napus
# Summary of the method: as §1
# bamyardgrass = assay: Test B flood test barnyardgrass; type: in vivo, Echinochloa crus-galli
# Summary of the method: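 Read-out is a visual response score from 0 (no effect) to 10 (complete control), assigned by comparison with untreated controls. Treatment was applied at the 2-leaf stage, and plants stayed in the greenhouse for twelve to sixteen days before scoring.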
# [1] = Postemergence, Rate 250 g/ha, scale 0 to 10, 0 no effect, 10 complete control
# [2] = Postemergence, Rate 1000 g/ha, scale 0 to 10 (0 no effect, 10 complete control)
# [3] = Preemergence, Rate 125 g/ha, scale 0 to 10 (0 no effect, 10 complete control)
# [4] = Preemergence, Rate 250 g/ha, scale of 0 to 10 where 0 is no effect and 10 is complete control
# [5] = Preemergence, Rate 500 g/ha, scale 0 (no effect) to 10 (complete control)
# [6] = Rate 125 g/ha, Postemergence, scale 0 to 10, 0 no effect, 10 complete control
# [7] = Rate 1000 g/ha, Preemergence, scale 0 to 10 (0 no effect, 10 complete control)
# [8] = Rate 500 g/ha, Postemergence, 0 to 10 scale (0 no effect, 10 complete control)
# [9] = Rate 125 g/ha, Postemergence section (flood test species), scale 0 to 10, 0 no effect, 10 complete control
# [10] = Rate 500 g/ha, Postemergence section of Table B, 0 to 10 scale (0 no effect, 10 complete control)
# [11] = flood test, listed under Postemergence, Rate 250 g/ha, scale 0 to 10, 0 no effect, 10 complete control
# [12] = Postemergence, Rate 62 g/ha, scale 0 to 10, 0 is no effect, 10 is complete control
# [13] = Preemergence, Rate 62 g/ha, scale 0 to 10, 0 is no effect, 10 is complete control
# [14] = Preemergence, Rate 31 g/ha, visual rating, scale 0 to 10 (0 no effect, 10 complete control)
# [15] = Rate 31 g/ha, Postemergence, scale 0 to 10
SMILES,Wheat plant response rating (wheat; [1]),"Plant response rating, Wheat (wheat; [3])","Plant response rating, Wheat (wheat; [4])",Wheat plant response rating (wheat; [6]),Velvetleaf plant response rating (velvetleaf; [1]),"Plant response rating, Velvetleaf (velvetleaf; [3])","Plant response rating, Velvetleaf (velvetleaf; [4])",Velvetleaf plant response rating (velvetleaf; [6]),Rape plant response rating (rape; [1]),"Plant response rating, Rape (rape; [3])","Plant response rating, Rape (rape; [4])",Rape plant response rating (rape; [6]),Barnyardgrass plant response rating (bamyardgrass; [9]),Barnyardgrass plant response rating (bamyardgrass; [10]),Barnyardgrass plant response rating (bamyardgrass; [11]),Wheat plant response rating (wheat; [12]),"Plant response rating, Wheat (wheat; [13])",Velvetleaf plant response rating (velvetleaf; [12]),"Plant response rating, Velvetleaf (velvetleaf; [13])",Rape plant response rating (rape; [12]),further results
CCN(CC)C(=O)n1oc(=O)n(-c2c(C)cccc2C)c1=O [Compound 2],0,0,0,0,0,0,0,0,0,0,0,0,0,0,0,–,–,–,–,–,"Wheat plant response rating (wheat; [2]): 0; Wheat plant response rating (wheat; [5]): 0; Plant response rating, Wheat (wheat; [7]): 0; Velvetleaf plant response rating (velvetleaf; [2]): 0; Velvetleaf plant response rating (velvetleaf; [5]): 0; Plant response rating, Velvetleaf (velvetleaf; [7]): 2; Rape plant response rating (rape; [2]): 0; Rape plant response rating (rape; [5]): 0; Rape plant response rating (rape; [8]): 0; Plant response rating, Rape (rape; [7]): 0; Barnyardgrass plant response rating (bamyardgrass; [2]): 0"
"CC(C)N(C(=O)n1oc(=O)n(-c2ccc(Cl)cc2Cl)c1=O)c1ccc(F)cc1 [Compound 7, 4-(2,4-Dichlorophenyl)-N-(4-fluorophenyl)-N-(1-methylethyl)-3,5-dioxo-1,2,4-oxadiazolidine-2-carboxamide]",0,0,0,0,0,0,0,0,0,0,0,0,0,0,0,–,–,–,–,–,"Wheat plant response rating (wheat; [2]): 2; Wheat plant response rating (wheat; [5]): 0; Plant response rating, Wheat (wheat; [7]): 0; Velvetleaf plant response rating (velvetleaf; [2]): 0; Velvetleaf plant response rating (velvetleaf; [5]): 0; Plant response rating, Velvetleaf (velvetleaf; [7]): 0; Rape plant response rating (rape; [2]): 0; Rape plant response rating (rape; [5]): 0; Rape plant response rating (rape; [8]): 0; Plant response rating, Rape (rape; [7]): 0; Barnyardgrass plant response rating (bamyardgrass; [2]): 0; Barnyardgrass plant response rating (bamyardgrass; Rate 250 g/ha, headed Pre-emergence (flood test species), scale 0 to 10 (0 no effect, 10 complete control)): 0; Plant response rating, Barnyardgrass (bamyardgrass; Rate 500 g/ha, headed Pre-emergence (flood test species), scale 0 to 10 (0 no effect, 10 complete control)): 0; Barnyardgrass plant response rating (bamyardgrass; Rate 1000 g/ha, Pre-emergence (as headed), scale 0 to 10): 0; Barnyardgrass plant response rating (bamyardgrass; Rate 2000 g/ha, Pre-emergence (as headed), scale 0 to 10, 0 no effect, 10 complete control): 0"
CCN(CC)C(=O)n1oc(=O)n(-c2cc(Cl)cc(Cl)c2)c1=O [Compound 11],0,0,0,0,0,0,0,0,0,0,0,0,0,0,0,0,0,0,0,0,"Wheat plant response rating (wheat; [5]): 0; Velvetleaf plant response rating (velvetleaf; [5]): 0; Plant response rating, Rape (rape; [13]): 0; Rape plant response rating (rape; [5]): 0; Rape plant response rating (rape; [8]): 0; Barnyardgrass plant response rating (bamyardgrass; [12]): 0"
CC(C)N(C(=O)n1oc(=O)n(-c2c(Cl)cccc2Cl)c1=O)c1ccc(F)cc1 [Compound 19],0,0,0,0,0,0,0,0,0,0,0,0,0,0,0,0,0,0,0,0,"Wheat plant response rating (wheat; [5]): 0; Velvetleaf plant response rating (velvetleaf; [5]): 0; Plant response rating, Rape (rape; [13]): 0; Rape plant response rating (rape; [5]): 3; Rape plant response rating (rape; [8]): 0; Barnyardgrass plant response rating (bamyardgrass; [12]): 0"
CCN(C(=O)n1oc(=O)n(-c2ccccc2OC)c1=O)C1CCCCC1 [Compound 29],0,0,0,0,0,0,0,0,0,0,0,0,0,0,0,0,0,0,0,0,"Wheat plant response rating (wheat; [14]): 0; Velvetleaf plant response rating (velvetleaf; [14]): 0; Rape plant response rating (rape; [14]): 0; Plant response rating, Rape (rape; [13]): 0; Rape plant response rating (rape; [15]): 0; Barnyardgrass plant response rating (bamyardgrass; [12]): 0"
COc1ccccc1-n1c(=O)on(C(=O)N(c2ccc(F)cc2F)C(C)C)c1=O [Compound 31],0,0,0,0,0,0,0,0,0,0,4,0,0,0,0,0,0,0,0,0,"Wheat plant response rating (wheat; [14]): 0; Velvetleaf plant response rating (velvetleaf; [14]): 0; Rape plant response rating (rape; [14]): 0; Plant response rating, Rape (rape; [13]): 0; Rape plant response rating (rape; [15]): 0; Barnyardgrass plant response rating (bamyardgrass; [12]): 0"
COc1ccc(-n2c(=O)on(C(=O)N(c3ccc(F)cc3F)C(C)C)c2=O)c(OC)c1 [Compound 32],0,0,0,0,0,0,0,0,0,0,0,0,0,9,8,0,0,0,0,0,"Wheat plant response rating (wheat; [14]): 0; Velvetleaf plant response rating (velvetleaf; [14]): 0; Rape plant response rating (rape; [14]): 0; Plant response rating, Rape (rape; [13]): 0; Rape plant response rating (rape; [15]): 0; Barnyardgrass plant response rating (bamyardgrass; [12]): 0"
